Reference: US3956274A, “New compound 6'-deoxy-'-substituted or unsubstituted amino-lividomycins and the production thereof” (Zaidan Hojin Biseibutsu Kagaku Kenkyu Kai, priority 1973, dated 1976)
In brackets after ≈: the same amount, converted by molar mass.

What was measured:
Experiment in all cases: MIC, standard serial dilution method
Format in all cases: cell-based
[1] = tested on: Bacillus subtilis NRRL B-558; details: B. subtilis NRRL B-558; nutrient agar, 37°C, 18 hours
Description: (§1) The minimum inhibitory concentrations (mcg/ml) of 6'-amino-6'-deoxylividomycin B, 6'-deoxy-6'-methylaminolividomycin B and 6'-deoxy-6'-(2-hydroxyethylamino) lividomycin B against various microorganisms were determined according to a standard serial dilution method using nutrient agar incubation medium at 37°C, the estimation being effected after 18 hours incubation except for Mycobacterium smegmalis ATCC 607, in which the estimation being effected after 48 hours incubation. The minimum inhibitory concentrations (mcg/ml) of neomycin and lividomycin B were also determined in the same manner they also for comparison.

[2] = tested on: Pseudomonas aeruginosa A 3; details: P. aeruginosa A 3; nutrient agar, 37°C, 18 hours
Description: as §1

[3] = tested on: Escherichia coli K-12 LA 290 R 56; details: E. coli K-12 LA 290 R 56; nutrient agar, 37°C, 18 hours
Description: as §1

[4] = tested on: Mycobacterium smegmatis ATCC 607; details: nutrient agar, 37°C, 48 hours
Description: as §1

Escherichia coli K-12 = details: E. coli K-12; nutrient agar, 37°C, 18 hours
Description: as §1

[5] = tested on: Staphylococcus aureus FDA 209 P; details: S. aureus FDA 209 P; nutrient agar, 37°C, 18 hours
Description: as §1

[6] = tested on: Escherichia coli K-12 ML 1630; details: E. coli K-12 ML 1630; nutrient agar, 37°C, 18 hours
Description: as §1

Sarcina lutea PCI 1001 = details: nutrient agar, 37°C, 18 hours
Description: as §1

[7] = tested on: Escherichia coli K-12 ML 1410; details: E. coli K-12 ML 1410; nutrient agar, 37°C, 18 hours
Description: as §1

Salmonella typhosa T-63 = details: Salmonella typhosa T-63; nutrient agar, 37°C, 18 hours
Description: as §1

[8] = tested on: Klebsiella pneumoniae PCI 602; details: K. pneumoniae PCI 602; nutrient agar, 37°C, 18 hours
Description: as §1

[9] = tested on: Escherichia coli K-12 J 5 R 11-2; details: E. coli K-12 J 5 R 11-2; nutrient agar, 37°C, 18 hours
Description: as §1

[10] = tested on: Klebsiella pneumoniae type 22 No. 3038; details: K. pneumoniae type 22 No. 3038; nutrient agar, 37°C, 18 hours
Description: as §1

[11] = tested on: Escherichia coli K-12 ML 1410 R 81; details: E. coli K-12 ML 1410 R 81; nutrient agar, 37°C, 18 hours
Description: as §1

[12] = tested on: Pseudomonas aeruginosa TI-13-1; details: P. aeruginosa TI-13-1; nutrient agar, 37°C, 18 hours
Description: as §1

Proteus rettgeri GN 466 = details: Proteus rettgeri GN 466; nutrient agar, 37°C, 18 hours
Description: as §1

Escherichia coli NIHJ = details: E. coli NIHJ; nutrient agar, 37°C, 18 hours
Description: as §1

[13] = tested on: Escherichia coli K-12 LA 290 R 64; details: E. coli K-12 LA 290 R 64; nutrient agar, 37°C, 18 hours
Description: as §1

[14] = tested on: Pseudomonas aeruginosa 99; details: P. aeruginosa 99; nutrient agar, 37°C, 18 hours
Description: as §1

Proteus rettgeri GN 311 = details: nutrient agar, 37°C, 18 hours
Description: as §1

[15] = tested on: Escherichia coli K-12 R-5; details: E. coli K-12 R-5; nutrient agar, 37°C, 18 hours
Description: as §1

[16] = tested on: Escherichia coli K-12 W 677; details: E. coli K-12 W 677; nutrient agar, 37°C, 18 hours
Description: as §1

[17] = tested on: Pseudomonas aeruginosa No.12; details: P. aeruginosa No.12; nutrient agar, 37°C, 18 hours
Description: as §1

[18] = tested on: Pseudomonas aeruginosa GN 315; details: P. aeruginosa GN 315, drug-resistant strain of patient-origin; nutrient agar, 37°C, 18 hours
Description: as §1
(§2) In the above table, the mark * denotes the strain is a drug-resistant
(§3) strain of patient-origin.

[19] = tested on: Escherichia coli K-12 ML 1629; details: E. coli K-12 ML 1629, drug-resistant strain of patient-origin; nutrient agar, 37°C, 18 hours
Description: as §1, §2, §3

[20] = tested on: Escherichia coli K-12 LA 290 R 55; details: E. coli K-12 LA 290 R 55, drug-resistant strain of patient-origin; nutrient agar, 37°C, 18 hours
Description: as §1, §2, §3

[21] = tested on: Escherichia coli K-12 JR 66/W 677; details: E. coli K-12 JR 66/W 677, drug-resistant strain of patient-origin; nutrient agar, 37°C, 18 hours
Description: as §1, §2, §3

In the case of `NC[C@@H]1O[C@H](O[C@H]2[C@@H](O)[C@H](O[C@@H]3[C@@H](O)[C@H](N)C[C@H](N)[C@H]3O[C@H]3O[C@H](CN)[C@@H](O)[C@H](O)[C@H]3N)O[C@@H]2CO)[C@H](N)[C@@H](O)[C@@H]1O` [NM, neomycin, reference compound], the Minimal inhibitory concentration [1] is reported as under 0.20 µg/mL, the Minimal inhibitory concentration [2] is reported as 25 µg/mL (≈ 40.7 µM) and the Minimal inhibitory concentration [3] is reported as 0.78 µg/mL (≈ 1.27 µM). The Minimal inhibitory concentration [4] was under 0.20 µg/mL, the Minimal inhibitory concentration (Escherichia coli K-12) was 1.56 µg/mL (≈ 2.54 µM) and the Minimal inhibitory concentration [5] was 0.39 µg/mL (≈ 0.635 µM). For the same compound, the Minimal inhibitory concentration [6] was over 100 µg/mL, the Minimal inhibitory concentration (Sarcina lutea PCI 1001) was 0.78 µg/mL (≈ 1.27 µM) and the Minimal inhibitory concentration [7] was 6.25 µg/mL (≈ 10.2 µM). For the same compound, the Minimal inhibitory concentration (Salmonella typhosa T-63) was 0.78 µg/mL (≈ 1.27 µM), the Minimal inhibitory concentration [8] was 0.78 µg/mL (≈ 1.27 µM) and the Minimal inhibitory concentration [9] was 50 µg/mL (≈ 81.3 µM). The Minimal inhibitory concentration [10] was over 100 µg/mL, the Minimal inhibitory concentration [11] was over 100 µg/mL and the Minimal inhibitory concentration [12] was over 100 µg/mL. The Minimal inhibitory concentration (Proteus rettgeri GN 466) was 3.12 µg/mL (≈ 5.08 µM), the Minimal inhibitory concentration (Escherichia coli NIHJ) was 1.56 µg/mL (≈ 2.54 µM) and the Minimal inhibitory concentration [13] was 0.39 µg/mL (≈ 0.635 µM). The Minimal inhibitory concentration [14] was 50 µg/mL (≈ 81.3 µM), the Minimal inhibitory concentration (Proteus rettgeri GN 311) was 50 µg/mL (≈ 81.3 µM) and the Minimal inhibitory concentration [15] was 0.78 µg/mL (≈ 1.27 µM). The Minimal inhibitory concentration [16] was 0.78 µg/mL (≈ 1.27 µM), the Minimal inhibitory concentration [17] was 3.12 µg/mL (≈ 5.08 µM) and the Minimal inhibitory concentration [18] was 100 µg/mL (≈ 163 µM). It also gave a Minimal inhibitory concentration [19] of 100 µg/mL (≈ 163 µM), a Minimal inhibitory concentration [20] of 0.78 µg/mL (≈ 1.27 µM) and a Minimal inhibitory concentration [21] of over 100 µg/mL.
